Test results taken from paper PMC10326435, “Antiprotozoal activity of natural products from Nigerien plants used in folk medicine” (Frontiers in Pharmacology, 2023).
Values joined by “and” are separate entries in the source; they are usually repeats but may differ in a detail not shown here. Equal entries are not always repeated. Where two headings read alike, the source gives them in different places.

How the values were obtained:
[1] = tested on: T. b. rhodesiense (STIB900, trypomastigotes); assay: in vitro activity on T. b. rhodesiense, serial dilution assay; assay type: cell-based, Trypanosoma brucei rhodesiense; conditions: for Selectivity index (SI) T. b. rhodesiense: SI = IC50 cytotoxicity (L6)/IC50 in T. b. rhodesiense; for IC50: Trypanosoma brucei
Method: (§1) The in vitro activity was assessed on T. b. rhodesiense (STIB900, trypomastigotes), T. cruzi (Tulahuen C2C4, intracellular amastigotes), L. donovani (MHOM-ET-67/L82, axenically grown amastigotes), P. falciparum (NF54, intraerythrocytic), and L6 cells (ATCC, CRL-1458™, rat skeletal myoblasts) as previously described ([Bernal et al., 2020]). The activities were determined in serial dilution assays with 72 h compound exposure, respectively 96 h for intracellular T. cruzi. Results are expressed in µg/mL for extracts and in µM for pure compounds. The IC50 values were determined for the compounds only when they were <50 µM.

[2] = tested on: T. cruzi (Tulahuen C2C4, intracellular amastigotes); assay: in vitro activity on T. cruzi, serial dilution assay; assay type: cell-based, Trypanosoma cruzi; conditions: for IC50: Trypanosoma cruzi, TULAHUEN; for Selectivity index (SI) T. cruzi: SI = IC50 cytotoxicity (L6)/IC50 in T. cruzi
Method: as §1

[3] = tested on: L. donovani (MHOM-ET-67/L82, axenically grown amastigotes); assay: in vitro activity on L. donovani, serial dilution assay; assay type: cell-based, Leishmania donovani; conditions: for IC50: Leishmania donovani; for Selectivity index (SI) L. donovani: SI = IC50 cytotoxicity (L6)/IC50 in L. donovani
Method: as §1

[4] = tested on: P. falciparum (NF54, intraerythrocytic); assay: in vitro activity on P. falciparum, serial dilution assay; assay type: cell-based, Plasmodium falciparum; conditions: for IC50: Plasmodium falciparum, read-out: IC50 P. falciparum; for Selectivity index (SI) P. falciparum: SI = IC50 cytotoxicity (L6)/IC50 in P. falciparum
Method: as §1

cytotoxicity in L6 cells = assay type: cell-based, rat
Method: as §1

P. falciparum = conditions: already reported; ref Suksamrarn et al., 2006; Panseeta et al., 2011; Tuenter et al., 2017; read-out: antiplasmodial activity IC50; cited from earlier work
[5] = 72 h, 72 h exposure, means of two independent assays ± deviation from the mean, read-out: IC50 T. b. rhodesiense
[6] = 96 h, 96 h exposure, means of two independent assays ± deviation from the mean, read-out: IC50 T. cruzi
[7] = 72 h, axenic amastigotes, 72 h exposure, means of two independent assays ± deviation from the mean, read-out: IC50 L. donovani
[8] = NF54, 72 h, 72 h exposure, means of two independent assays ± deviation from the mean
[9] = inactive, read-out: IC50 T. b. rhodesiense (inactive)
[10] = inactive, read-out: IC50 T. cruzi (inactive)
[11] = inactive, read-out: IC50 L. donovani (inactive)
[12] = rat, L6 cells (rat skeletal myoblasts, ATCC CRL-1458), rat skeletal myoblast (L6 cells), 72 h exposure, means of two independent assays ± deviation from the mean, read-out: IC50 Cytotoxicity
[13] = 72 h exposure, means of two independent assays ± deviation from the mean, read-out: IC50 T. b. rhodesiense
[14] = 72 h, read-out: IC50 L. donovani
[15] = rat skeletal myoblast (L6 cells), 72 h exposure, means of two independent assays ± deviation from the mean, read-out: IC50 Cytotoxicity

Structure (SMILES) | Selectivity index (SI) T. b. rhodesiense [1] | IC50 [1, 5] [µM] | IC50 [2, 6] [µM] | IC50 [3, 7] [µM] | IC50 [4, 8] [µM] | Selectivity index (SI) P. falciparum [4] | Selectivity index (SI) L. donovani [3] | other results
COc1ccc2cc1/C=C\NC(=O)[C@H](Cc1ccccc1)NC(=O)[C@@H]1[C@H](CCN1C(=O)[C@@H](NC(=O)C(C)N(C)C)C(C)C)O2 (stereo in doubt) [Compound 10, amphibine H] | > 2.5 | 30.4 ± 4.6 | > 50 | > 50 | 15.1 ± 0.5 | > 5.3 | – | IC50 at 72 h (cytotoxicity in L6 cells; rat, IC50 Cytotoxicity): > 50 µM
O=C(Cn1ccnc1[N+](=O)[O-])NCc1ccccc1 [Benznidazole, reference compound] | – | – | 2.3 ± 0.2 | – | – | – | – | IC50 ([2]; 96 h, Table 2, 96 h exposure, means of two independent experiments, read-out: IC50 T. cruzi): 0.667 µg/mL
CCN(CC)CCCC(C)Nc1ccnc2cc(Cl)ccc12 (stereo not drawn) [Chloroquine, reference compound] | – | – | – | – | – | – | – | IC50 ([4]; NF54, 72 h): 0.003 µg/mL and 9 nM
CCCCCCCCCCCCCCCC(=O)OCC(O)COP(=O)([O-])OCC[N+](C)(C)C (stereo not drawn) [Compound 3, 1-palmitoyl-lysolecithin] | – | > 20 | – | > 20 | > 10 | – | – | IC50 ([2]; 96 h, read-out: IC50 T. cruzi): 12.1 ± 2.4 µM; IC50 at 72 h (cytotoxicity in L6 cells; rat, IC50 Cytotoxicity): > 20 µM
CN[C@@H](C)C(=O)N[C@H](C(=O)N1CC[C@@H]2Oc3ccc(cc3)/C=C\NC(=O)[C@H](Cc3ccccc3)NC(=O)[C@H]21)C(C)C [Compound 4, mauritine F] | – | > 50 | > 50 | > 50 | 24.3 ± 4.5 | > 5.5 | – | IC50 at 72 h (cytotoxicity in L6 cells; rat, IC50 Cytotoxicity): > 50 µM; IC50 (P. falciparum): 34.2 µM
CC(C)[C@H](NC(=O)[C@H](C)N(C)C)C(=O)N1CC[C@@H]2Oc3ccc(cc3)/C=C\NC(=O)[C@H](Cc3ccccc3)NC(=O)[C@H]21 [Compound 5, mauritine A] | – | – | – | – | – | – | – | IC50 [1, 9]: > 50 µM; IC50 [2, 10]: > 50 µM; IC50 [3, 11]: > 50 µM; IC50 ([4]; NF54, abstract and b45 text): > 50 µM
C=C(C)[C@@H]1CC[C@]2(C(=O)O)CC[C@]3(C)[C@H](CC[C@@H]4[C@@]5(C)[C@@H](C(=O)O)[C@H](O)C(C)(C)[C@@H]5CC[C@]43C)[C@@H]12 [Compound 6, ceanothic acid] | – | > 50 | > 50 | 29 ± 3.3 | > 50 | – | > 1.7 | IC50 at 72 h (cytotoxicity in L6 cells; rat, IC50 Cytotoxicity): > 50 µM; IC50 (P. falciparum): > 20 µM
CN[C@@H](Cc1ccccc1)C(=O)N[C@@H]1C(=O)N[C@@H](CC(C)C)C(=O)N/C=C\c2ccc(cc2)O[C@H]1C(C)C [Compound 7, sanjoinine B] | – | > 50 | > 50 | > 50 | 23.1 ± 9 | > 6.0 | – | IC50 at 72 h (cytotoxicity in L6 cells; [12]): > 50 µM
CCC(C)[C@@H]1NC(=O)[C@@H](NC(=O)[C@H](Cc2ccccc2)N(C)C)[C@H](C(C)C)Oc2ccc(cc2)/C=C\NC1=O (stereo partly drawn) [Compound 8, lotusanine A] | – | > 50 | > 50 | > 50 | > 50 | – | – | IC50 at 72 h (cytotoxicity in L6 cells; [12]): > 50 µM
CC(C)C[C@@H]1NC(=O)[C@@H](NC(=O)[C@H](Cc2c[nH]c3ccccc23)N(C)C)[C@H](C(C)C)Oc2ccc(cc2)/C=C\NC1=O [Compound 9, nummularine K] | 2.7 | 12.7 ± 3.8 | 43.6 ± 7.1 | > 50 | 20.7 ± 5.8 | 1.6 | – | Selectivity index (SI) T. cruzi [2]: 0.8; IC50 at 72 h (cytotoxicity in L6 cells; [12]): 33.6 ± 4.9 µM
C=C(C)C12CCC3(CCC4(C)C(CCC5C6(C)C(C(=O)O)C(O)C(C)(C)C6CCC54C)C31)C(=O)O2 (stereo not drawn) [Compound 13] | – | > 50 | > 50 | 11.6 ± 2.4 | 29.1 ± 4.1 | > 3.7 | > 9.3 | IC50 at 72 h (cytotoxicity in L6 cells; rat, IC50 Cytotoxicity): > 50 µM
C=C(C)[C@@H]1CC[C@]2(C(=O)O)CC[C@]3(C)[C@H](CC[C@@H]4[C@@]5(C)[C@H](C=O)[C@@H](O)C(C)(C)[C@@H]5CC[C@]43C)[C@@H]12 [Compound 14, colubrinic acid] | – | – | – | – | – | > 5.5 | > 45 | IC50 [1, 13]: > 50 µM; IC50 ([2]; 96 h, read-out: IC50 T. cruzi): > 50 µM; IC50 [3, 14]: 1.9 ± 0.4 µM; IC50 ([4]; NF54, 72 h): 15.3 ± 4.1 µM; IC50 at 72 h (cytotoxicity in L6 cells; [15]): > 50 µM
C=C(C)[C@@H]1CC[C@]2(C(=O)O)CC[C@]3(C(=O)O)[C@H](CC[C@@H]4[C@@]5(C)C=CC(C)(C)[C@@H]5CC[C@]43C)[C@@H]12 [Compound 17, ceanothenic acid] | – | – | – | – | – | > 8.0 | > 40 | IC50 [1, 13]: > 50 µM; IC50 ([2]; 96 h, read-out: IC50 T. cruzi): > 50 µM; IC50 [3, 14]: 2.6 ± 0.2 µM; IC50 ([4]; NF54, 72 h): 13.9 ± 4 µM; IC50 at 72 h (cytotoxicity in L6 cells; [15]): > 50 µM
C=C(C)[C@@H]1CC[C@]2(C(=O)O)CC[C@]3(C)[C@H](CC[C@@H]4[C@@]5(C)C[C@@H](O)[C@H](OC(=O)/C=C/c6ccc(O)cc6)C(C)(C)[C@@H]5CC[C@]43C)[C@@H]12 [Compound 18, 3-O-trans-p-coumaroylalphitolic acid] | 0.6 | 25.9 ± 2.6 | 19.5 ± 0.6 | 3 ± 0.2 | 0.2 ± 0.04 | 79.0 | 5.3 | Selectivity index (SI) T. cruzi [2]: 0.8; IC50 at 72 h (cytotoxicity in L6 cells; rat, IC50 Cytotoxicity): 15.8 ± 6.4 µM
CC(C)=CCC1=C(Cl)C(=O)c2c(O)ccc(O)c2C1=O [Compound 21] | 15.8 | 0.5 ± 0.3 | 21.5 ± 0.2 | 3 ± 0.4 | 9.2 ± 2.1 | 0.9 | 2.6 | Selectivity index (SI) T. cruzi [2]: 0.4; IC50 at 72 h (cytotoxicity in L6 cells; [12]): 7.9 ± 1.3 µM
C=C(C)[C@H](O)CC1=C(O)C(=O)c2c(O)ccc(O)c2C1=O [Compound 22] | 0.8 | 36 ± 9.4 | > 50 | 7.9 ± 0.9 | > 50 | – | 3.8 | IC50 at 72 h (cytotoxicity in L6 cells; [12]): 30.4 ± 10.6 µM
COC1=CC(=O)C=C(OC)C1=O [Compound 23] | – | – | – | – | – | – | – | IC50 [1, 13]: 9.3 ± 3.1 µM; IC50 ([2]; 96 h, read-out: IC50 T. cruzi): > 50 µM; IC50 [3, 14]: 15.1 ± 1 µM; IC50 ([4]; NF54, 72 h): 36.9 ± 15.4 µM; IC50 at 72 h (cytotoxicity in L6 cells; [15]): > 50 µM
CC(C)=CC[C@@]12O[C@@H]1C(O)c1c(O)ccc(O)c1C2=O (stereo partly drawn) [Compound 25] | 7.6 | 2.5 ± 0.1 | > 50 | 12.7 ± 5.3 | 14 ± 1.9 | 1.4 | 1.5 | IC50 at 72 h (cytotoxicity in L6 cells; [12]): 19 ± 2.3 µM
CC(C)=CC[C@@]12O[C@@H]1C(=O)c1c(O)ccc(O[C@@H]3O[C@H](CO)[C@@H](O)[C@H](O)[C@H]3O)c1C2=O [Compound 26] | 1.2 | 9.9 ± 4.5 | 39.2 ± 5 | 3.5 ± 0.5 | 9 ± 5.4 | 1.4 | 3.5 | Selectivity index (SI) T. cruzi [2]: 0.3; IC50 at 72 h (cytotoxicity in L6 cells; [12]): 12.2 ± 1.8 µM
CC(C)=CCCc1ccc2c(c1)C(=O)c1ccccc1C2=O [Compound 27] | – | – | – | – | – | – | – | IC50 [1, 9]: > 50 µM; IC50 [2, 10]: > 50 µM; IC50 [3, 11]: > 50 µM; IC50 ([4]; NF54, abstract and b45 text): > 50 µM
CC(C)=CCCc1ccc2c(c1O)C(=O)c1ccccc1C2=O [Compound 28] | – | – | – | – | – | – | – | IC50 [1, 9]: > 50 µM; IC50 [2, 10]: > 50 µM; IC50 [3, 11]: > 50 µM; IC50 ([4]; NF54, abstract and b45 text): > 50 µM
COc1cc([C@@H]2OC[C@@H]3[C@H]2CO[C@H]3c2cc(OC)c(O)c(OC)c2)cc(OC)c1O [Compound 30] | 0.6 | 20.2 ± 1.8 | 29.2 ± 11.4 | 13.4 ± 2.3 | 22.6 ± 2 | 0.6 | 1.0 | Selectivity index (SI) T. cruzi [2]: 0.4; IC50 at 72 h (cytotoxicity in L6 cells; rat, IC50 Cytotoxicity): 13 ± 1.7 µM
Nc1nc(N)nc(Nc2ccc([As]3SCC(CO)S3)cc2)n1 (stereo not drawn) [Melarsoprol, reference compound] | – | – | – | – | – | – | – | IC50 ([1]; 72 h, read-out: IC50 T. b. rhodesiense): 0.005 µg/mL and 16 nM
CCCCCCCCCCCCCCCCOP(=O)([O-])OCC[N+](C)(C)C [Miltefosine, reference compound] | – | – | – | 0.52 ± 0.07 | – | – | – | IC50 ([3]; 72 h, Table 2, 72 h exposure, means of two (C. sieberiana three) independent experiments, read-out: IC50 L. donovani): 0.282 µg/mL
COc1cc([C@@H]2c3cc4c(cc3[C@H](O)[C@H]3COC(=O)[C@H]23)OCO4)cc(OC)c1OC [Podophyllotoxin, reference compound] | – | – | – | – | – | – | – | IC50 at 72 h (cytotoxicity in L6 cells; Table 2, rat skeletal myoblast (L6 cells), 72 h exposure, read-out: IC50 Cytotoxicity): 0.008 µg/mL
